In patent US20260069693A1, “UROLITHINS AND T-CELL MEDIATED IMMUNE RESPONSE” (priority 2022, published 2026):

How the values were obtained:
APTK-s.c. tumors = experiment: subcutaneous APTK tumors, UA-supplemented diet; format: in vivo, C57BL/6 mice
Description: Tumors were minced and digested with Tumor & Tissue Dissociation Reagent (BD Horizon) for 30 min. The remaining organ pieces were filtered through a 70 μm cell strainer. Cells were then washed with PBS 1% BSA and 2 mM EDTA. Immune cells were enriched on a 30%/40%/75% Percoll gradient after a 1700 rpm 17 min centrifugation. Then, tumor immune filtrates or activated T cells were stained with Fixable Viability Dye-eF780 (65-0865-14; eBioscience), αCD45-FITC (30-F11; 11-0451-85; eBioscience), αCD11b-BV650 (M1/70; 56340; BD) α-CD11C-BV785 (HL3; 563735; BD), αLy6G-BV605 (53-6.7; 563005; BD), αLy6C-AF700 (HK1.4; 128024; Biolegend), αF4/80-PE (BM8; 12-4801-82, eBioscience), αPD-L1-PECy7 (MIH5; 25-5982-80, eBioscience); or with Fixable Viability Dye-eF780 (ebioscience), αCD45-BV786 (30-F11; 564225; BD), αCD4-BUV496 (GK1.5; 564667; BD), αCD8-BV605 (100744; Biolegend), αPD1-APC (J43; 17-9985-82; eBioscience), αTIM-3-PECy7 (RMT3-23; 119715; Biolegend), αCTLA4-PE (UC10-4B9; 106305; Biolegend) and αLag3-BV421 (C9B7W; 125221, Biolegend); or with Fixable Viability Dye-eF780 (eBioscience), αCD4-FITC (H129.19; 553650; BD), αCD8-APC (53-6.7; 17-0081-83; eBioscience), αCD44-AF400 (IM7; 103026; Biolegend), αCD62L-BV785 (MEL-14; 104440; Biolegend), αSca-1-PerCP-Cy5.5 (D7; 45-5981-82; eBioscience), αCD95-PE (Jo2; 554258; BD); or with Fixable Viability Dye-eF780 (eBioscience), αCD8-BV650 (53-6.7; 563234; BD), αCD4-BUV496 (GK1.5; 564667; BD), αCD127-APC (A7R34; 17-1271-82; eBioscience), αCD95-FITC (SA367H8; 152605; Biolegend), αCD44-AF400 (IM7; 103026; Biolegend), αCD62L-BV785 (MEL-14; 104440; Biolegend), αSca-1-PerCP-Cy5.5 (D7; 45-5981-82; eBioscience) followed by intracellular staining of αTCF1-PE (S33-966; 564217; BD), or PGC-1α (sc-518025; D-5; santa cruz), or αCyclinD1 (MA5-28534, DCS-6; Invitrogen) with transcription factor buffer set kit (BD Biosciences). To study cytokine expression, tumor immune infiltrates were stimulated ex vivo with 20 ng/ml PMA and 1 μg/ml Ionomycin (Sigma) for 3 h in T cell activation medium with Brefeldin A (Biolegend).

Pgam5^−/− CD8^+ T cells = experiment: aCD3/aCD28 stimulation of Pgam5-/- T cells in presence of UA; format: cell-based, mice
Excerpt: Next the inventors examined whether the observed upregulation of TCF1 was a result of enhanced Wnt signalling. […] To explore whether Pgam5 may be involved in UA-induced Wnt activation, the inventors examined Pgam5 localization upon UA administration. […] More importantly, Pgam5 loss blocked the UA-dependent expansion of CD44^−CD62L^+Sca1^Hi TSCM cells (FIG. 5I).
Splenic murine T cells were isolated from mice aged 6-20 weeks by negative selection with EasySep mouse T cell isolation kit (Stem cell) according to the manufacturer's instructions. To monitor T cell proliferation, purified T cells were loaded with CellTrace Violet (C34557 ThermoFisher Scientific). T cell activation was initiated using αCD3/CD28 activation beads (11456D; ThermoFisher Scientific) at a ratio of 25 μl dynabeads per 0.5×10^6 T-cells. Cells were activated with 25-50 μM Urolithin A (Tocris) or DMSO in T cell activation Medium (RPMI (ThermoFisher Scientific) 10% FBS (South America origin), 10 mM Hepes (Sigma), 1× Non-Essential Amino Acid, 1 mM Sodium Pyruvate, 50 μM B-Mercaptoethanol, 100 U/ml penicillin, 100 μg/ml streptomycin and 2 mM Glutamax (ThermoFisher Scientific) for the indicated durations. In selected experiments, cells were stimulated in the presence of inhibitors, namely TCF1i (ICG-001; SelleckChem; 10 μM) and PGC-1αi (SR-18292, Sigma-Aldrich; 10 μm,). For subsequent analysis, activating beads were magnetically removed prior antibody staining. For human T cells, peripheral blood mononuclear cells were purified with a Ficoll-Paque (GE healthcare) gradient. T cells were enriched with EasySep Human T Cell Isolation Kit (StemCell) and activated with dynabead Human T-Activator CD3/CD28 for T Cell Expansion and Activation Kit (11131D; ThermoFisher Scientific), similar to murine T cell stimulation.
For flow cytometric analysis of mitochondria and lysosomes 500 μl of Mitotracker Red (200 nM; ThermoFisher) or Lysotracker Red DND-99 (75 nM; ThermoFisher) were applied followed by surface staining. To study changes in mitochondrial membrane potential, Mitoprobe TMRM kit (ThermoFisher) was used according to the manufacturer's instructions. Cell proliferation was assessed by CellTrace Violet (Invitrogen, C34557) at a concentration of 5 μM according to manufacturer's instructions. For human samples, cells were stained as described above with Fixable Viability Dye-eF780, αCD95-BV421 (DX2; 562616), αCD62L-PE (DREG-56; 555544), αCCR7-AF700 (150503; 561143), αCD45RO-APC (UCHL; 559865), αCD45RA-FITC (HI100; 555488), αCD8-PE-CF594 (RPA-T8; 562282) and αCD4-BV786 (OKT4; 566806) from BD.

[1] = restimulated with PMA/ionomycin ex vivo
[2] = UA treated Pgam5-/- CD8+ T cells, 48 h

O=c1oc2cc(O)ccc2c2ccc(O)cc12 [UA, Urolithin A] was tested, and the “mitochondrial content in TIL of APTK tumors” value (APTK-s.c. tumors; CD8+ TIL, UA vs control diet) was “increased”, the “CD4+ TSCM in APTK-induced tumors” value (APTK-s.c. tumors; UA-containing vs control diet) was “no change” and the “TCF1 expression in tumor infiltrating CD8+ T cells” value (APTK-s.c. tumors; UA-containing vs control diet) was “increased expression”. For the same compound, the “dendritic cells (DCS), TAMs, or MDSC subsets in TME” value (APTK-s.c. tumors; UA-containing vs control diet) was “no change”, the “CD8+CD44loCD62LhiSca1hi T cells in APTK-induced tumors” value (APTK-s.c. tumors; UA-containing vs control diet, CD8+ TIL) was “marked increase” and the “exhaustion marker CTLA-4 in CD8+ T cells” value (APTK-s.c. tumors; UA-fed mice, CD8+ TIL) was “reduction”. The “exhaustion marker PD-1 in CD8+ T cells” value (APTK-s.c. tumors; UA-fed mice, CD8+ TIL) was “reduction”, the “exhaustion marker Tim3 in CD8+ T cells” value (APTK-s.c. tumors; UA-fed mice, CD8+ TIL) was “reduction” and the “CD8+ T cell infiltration in tumors” value (APTK-s.c. tumors; UA-supplemented diet vs control food) was “enhanced”. For the same compound, the “induction of IFNg in tumor infiltrating CD8+ T cells” value (APTK-s.c. tumors; [1]) was “stronger induction”, the “induction of TNFa in tumor infiltrating CD8+ T cells” value (APTK-s.c. tumors; [1]) was “stronger induction” and the lysosome formation (Pgam5^−/− CD8^+ T cells; Pgam5-/- CD8+ T cells) was “still enhanced”. The mitochondrial content (Pgam5^−/− CD8^+ T cells; Pgam5-/- CD8+ T cells) was “reduced”, the PGC-1a (Pgam5^−/− CD8^+ T cells; Pgam5-/- CD8+ T cells, 48 h, UA 50 μM) was “failed to enhance” and the “UA-dependent expansion of CD44-CD62L+Sca1Hi TSCM cells” value (Pgam5^−/− CD8^+ T cells; Pgam5 loss, 48 h) was “blocked”. For the same compound, the TCF1 (Pgam5^−/− CD8^+ T cells; [2]) was “failed to upregulate” and the “memory marker CD95” value (Pgam5^−/− CD8^+ T cells; [2]) was “failed to upregulate”.
